From BindingDB's records for doi:10.7270/Q2TX3D82 (Future University, 2017) come the findings set out here.

For the assay, the target named is T1, Dihydrofolate reductase (Bos taurus, UniProt P00376).
T1 sequence (P00376 whole entry): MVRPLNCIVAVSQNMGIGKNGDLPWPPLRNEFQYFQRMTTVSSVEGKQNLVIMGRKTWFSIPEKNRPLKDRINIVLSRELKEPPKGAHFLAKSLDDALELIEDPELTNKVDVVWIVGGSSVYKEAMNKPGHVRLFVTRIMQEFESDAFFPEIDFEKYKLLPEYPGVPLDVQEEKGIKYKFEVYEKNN
The experiment in a line: Dihydrofolate Reductase (DHFR) Inhibition Assay. As to conditions: pH 7.4; 25 °C.
Turning to `COc1ccc(C(=S)NNC(=O)CSc2nc3cc(OC)c(OC)cc3c(=O)n2-c2ccc(OC)cc2)cc1` [1-[2-(6,7-Dimethoxy)-3-(4-methoxy-phenyl)-4-oxo-3,4-dihydroquinazolin-2-yl-thio)acetyl)-4-(4-methoxy)phenyl]thiosemicarbazide (23)], the IC50 – broadly, the concentration that gives 50% inhibition – came out at 0.6 µM.

For `COc1ccc(-n2c(SCC(=O)NNC(=S)c3ccc(Cl)cc3)nc3ccc(Cl)cc3c2=O)cc1` [1-[2-(6-Chloro)-3-(4-methoxy-phenyl)-4-oxo-3,4-dihydroquinazolin-2-yl-thio)acetyl)-4-(4-chloro)phenyl]thiosemicarbazide (20)], the IC50 turned out to be 1.2 µM.

The molecule `COc1ccc(-n2c(SCC(=O)NN)nc3ccc(Cl)cc3c2=O)cc1` [2-[6-Chloro-3-(4-methoxyphenyl)-4-oxo-3,4-dihydroquinazolin-2-yl-thio] acetohydrazide (14)] registered an IC50 of 7.5 µM.

As to `COc1ccc(-n2c(SCC(=O)NN)nc3cc(OC)c(OC)cc3c2=O)cc1` [2-[(6,7-Dimethoxy)-3-(4-methoxyphenyl)-4-oxo-3,4-dihydroquinazolin-2-yl-thio] acetohydrazide (15)], it took 0.8 µM to reach half-maximal inhibition (IC50).

Molecule `COc1ccc(-n2c(SCc3nnc(Nc4ccc(Cl)cc4)s3)nc3cc(OC)c(OC)cc3c2=O)cc1` [6,7-Dimethoxy-2-((5-(4-chlorophenylamino)-1,3,4-thiadiazol-2-yl)methylthio)-3-(4-methoxyphenyl)quinazolin-4(3H)-one (30)] came in with an IC50 of 14.7 µM.

Take `COc1ccc(Nc2nnc(CSc3nc4cc(OC)c(OC)cc4c(=O)n3-c3ccc(OC)cc3)s2)cc1` [6,7-Dimethoxy-2-((5-(4-methoxyphenylamino)-1,3,4-thiadiazol-2-yl)methylthio)-3-(4-methoxyphenyl)quinazolin-4(3H)-one (31)]: the IC50 worked out at 11.8 µM.

In turn, `COc1ccc(-n2c(SCc3nnc(Nc4ccc(Cl)cc4)s3)nc3ccc(Cl)cc3c2=O)cc1` [6-Chloro-2-((5-(4-chlorophenylamino)-1,3,4-thiadiazol-2-yl)methylthio)-3-(4-methoxyphenyl)quinazolin-4(3H)-one (28)] had an IC50 of 0.4 µM.

Molecule `COc1ccc(-n2c(=S)[nH]c3ccc(Cl)cc3c2=O)cc1` [6-Chloro-2-mercapto-3-(4-methoxyphenyl)quinazolin-4(3H)-ones (10)] returned an IC50 of 11.5 µM.

The molecule `COc1ccc(Nc2nnc(CSc3nc4ccc(Cl)cc4c(=O)n3-c3ccc(OC)cc3)s2)cc1` [6-chloro-2-((5-(4-methoxyphenylamino)-1,3,4-thiadiazol-2-yl)methylthio)-3-(4-methoxyphenyl)quinazolin-4(3H)-one (29)] showed an IC50 of 4.4 µM.

`COc1ccc(-n2c(SCc3nnc(S)n3-c3ccc(Cl)cc3)nc3cc(OC)c(OC)cc3c2=O)cc1` [(6,7-Dimethoxy)-2-((4-(4-chlorophenyl)-5-mercapto-4H-1,2,4-triazol-3-yl)methylthio)-3-(4-methoxyphenyl)quinazolin-4(3H)-one (26)] had an IC50 of 11 µM.

In turn, `COc1ccc(-n2c(S)nnc2CSc2nc3cc(OC)c(OC)cc3c(=O)n2-c2ccc(OC)cc2)cc1` [(6,7-Dimethoxy)-2-((4-(4-methoxyphenyl)-5-mercapto-4H-1,2,4-triazol-3-yl)methylthio)-3-(4-methoxyphenyl)quinazolin-4(3H)-one (27)] yielded an IC50 of 10.8 µM.

The molecule `COc1ccc(-n2c(=S)[nH]c3cc(OC)c(OC)cc3c2=O)cc1` [(6,7-Dimethoxy)-2-mercapto-3-(4-methoxyphenyl)quinazolin-4(3H)-ones (11)] registered an IC50 of 29 µM.

`CCOC(=O)CSc1nc2cc(OC)c(OC)cc2c(=O)n1-c1ccc(OC)cc1` [Ethyl 2-(6,7-dimethoxy-3-(4-methoxyphenyl)-4-oxo-3,4-dihydroquinazolin-2-yl-thio)acetate (13)] returned a half-inhibitory concentration (IC50) of 14.4 µM.

`CCOC(=O)CSc1nc2ccc(Cl)cc2c(=O)n1-c1ccc(OC)cc1` [Ethyl 2-(6-chloro-3-(4-methoxyphenyl)-4-oxo-3,4-dihydroquinazolin-2-yl-thio)acetate (12)] had a concentration for half-maximal inhibition (IC50) of 1.7 µM.

As for `COc1ccc(-n2c(SCC(=O)N/N=C/c3ccc(Cl)cc3)nc3cc(OC)c(OC)cc3c2=O)cc1` [N'-[4-Chlorobenzylidene-2-(6,7-dimethoxy)-3-(4-methoxy-phenyl)-4-oxo-3,4-dihydroquinazolin-2-yl-thio]acetohydrazide (18)], half-maximal inhibition (IC50) was put at 7.6 µM.

Molecule `COc1ccc(-n2c(SCC(=O)N/N=C/c3ccc(Cl)cc3)nc3ccc(Cl)cc3c2=O)cc1` [N'-[4-Chlorobenzylidene-2-(6-chloro)-3-(4-methoxy-phenyl)-4-oxo-3,4-dihydroquinazolin-2-yl-thio]acetohydrazide (16)] displayed an IC50 of 19 µM.

`COc1ccc(/C=N/NC(=O)CSc2nc3cc(OC)c(OC)cc3c(=O)n2-c2ccc(OC)cc2)cc1` [N'-[4-Methoxybenzylidene-2-(6,7-dimethoxy)-3-(4-methoxy-phenyl)-4-oxo-3,4-dihydroquinazolin-2-yl-thio]acetohydrazide (19)] yielded a half-maximal inhibitory concentration (IC50) of 8 µM.

Consider `COc1ccc(/C=N/NC(=O)CSc2nc3ccc(Cl)cc3c(=O)n2-c2ccc(OC)cc2)cc1` [N'-[4-Methoxybenzylidene-2-(6-chloro)-3-(4-methoxy-phenyl)-4-oxo-3,4-dihydroquinazolin-2-yl-thio]acetohydrazide (17)], for which 0.01 µM corresponded to half-maximal inhibition (IC50).
